“Also recorded” adds a separate entry of the source.
Key:
[1] = tested on: reactive ACM-mediated toxicity; settings: previous data, Liddelow et al. 2017; cited from earlier work
oligodendrocytes [2] = test: Oligodendrocyte live/dead survival with ethoxyquin, with or without reactive ACM; format: cell-based, rat; settings: for Slope of simple linear regression of oligodendrocyte survival on ethoxyquin dose: increasing doses of ethoxyquin in DMSO
Method: For collection of astrocyte conditioned media, plates of astrocyte cultures from identical preps were randomly chosen as control or reactive. Reactive astrocyte cultures were treated for 24 hours with IL1α (3 ng/ml, Sigma, 13901), TNF (30 ng/ml, Cell Signaling Technology, 8902SF), and C1q (400 ng/ml, MyBioSource, MBS143105). Control and reactive astrocyte conditioned media (ACM) was collected and spun at ˜2000 g for 5 minutes to remove any dead cells or cell debris. ACM was then concentrated in a Vivaspin 30 kDa centrifugation tubes (Cytiva 28932361) to ˜10× concentration for subsequent experiments. The protein concentration of ACM was determined by Bradford Assay (Sigma-B6916) and used to ensure identical concentrations of reactive versus control ACM were used for further experiments. ACM was presented at a dose of 50 μg/ml in all experiments not otherwise denoted with an alternative concentration.
Z1 (Zeiss) or on an Incucyte ZOOM (Essen Bioscience).

oligodendrocytes [3] = settings: dose curve, live/dead analysis 24 hours after treatment
Method: Oligodendrocytes: Oligodendrocyte lineage cells were purified by immunopanning from P6 Sprague-Dawley forebrains and cultured as previously described (Dugas and Emery, “Purification of Oligodendrocyte Precursor Cells from Rat Cortices by Immunopanning,” Cold Spring Harbor Protocols 2013(8):745-758 (2013), which is hereby incorporated by reference in its entirety). Cortices were blunt dissected and enzymatically digested using papain at 37° C. and 10% CO2. Tissue was then mechanically triturated with a 5 mL serological pipette at room temperature to generate a single-cell suspension. […]
All experiments began with identically plated cells that were randomly chosen for treatment, ensuring identical starting cell numbers for control and experimental conditions. […] Identical acquisition and illumination conditions were used within each experiment and cells were counted in ImageJ using custom macros, which involved background subtraction and thresholding following by particle counting. […]

In the case of `CCOC(=O)c1ccc(NC2CCCCC2)c(N)c1` [Ferrostatin-1], the “Effect on reactive ACM-mediated (astrocyte) toxicity” value [1] is listed as “does not affect; also recorded: has no effect”.

For `CCOc1ccc2c(c1)C(C)=CC(C)(C)N2` [ethoxyquin], the “Slope of simple linear regression of oligodendrocyte survival on ethoxyquin dose” value (oligodendrocytes [2]; with 30 μg/ml reactive ACM) was −0.000001788, the “Slope of simple linear regression of oligodendrocyte survival on ethoxyquin dose” value (oligodendrocytes [2]; without reactive ACM) was −0.0000025 and the “Effect on toxicity of reactive ACM to oligodendrocytes” value (oligodendrocytes [2]; with reactive ACM) was “had no effect; also recorded: did not impact the toxicity of reactive ACM”. The “Effect on oligodendrocyte survival when treated in isolation” value (oligodendrocytes [2]; without reactive ACM) was “did not impact cell survival”.

In the case of `CCCCCCCCCCCCCCCCCCCC(=O)OC[C@H](COP(=O)([O-])OCC[N+](C)(C)C)OC(=O)CCCCCCCCCCCCCCCCCCC` [phosphatidylcholines (20:0)], the “Toxicity to oligodendrocytes (survival)” value (oligodendrocytes [3]) is reported as “toxic to oligodendrocytes in a dose-dependent fashion”.

— patent US20240091220A1, “METHODS OF MODULATING NEURONAL AND OLIGODENDROCYTE SURVIVAL” (priority 2021, published 2024)
